In the supplement of paper PMC10307832:

Tests used:
Assay in all cases: relative viability (nuclei count vs DMSO), 5 days (fraction); higher = more cells survive
Decitabine + Dasatinib = compound: Nc1ncn([C@H]2C[C@H](O)[C@@H](CO)O2)c(=O)n1 [Decitabine] + Cc1nc(Nc2ncc(C(=O)Nc3c(C)cccc3Cl)s2)cc(N2CCN(CCO)CC2)n1 [Dasatinib] (partner 0.075 µM)
Summary of the method: (§1)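 Cells from lung cancer lines were seeded into 1536-well plates and, one day later, dosed by pin tool. Treatments were either a single drug or a fixed dose of an anchor drug with five library-drug doses (not always all listed) in √10 steps. After 5 days, nuclei were stained in a one-step fixation (final 0.05% Triton X-100, 1% formaldehyde, 1 ug/ml Hoechst) and counted on 4× images, and relative viability is the treated-to-vehicle nuclei ratio, as the median of duplicate plates.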

Decitabine + AZD7762 = compound: Nc1ncn([C@H]2C[C@H](O)[C@@H](CO)O2)c(=O)n1 [Decitabine] + NC(=O)Nc1cc(-c2cccc(F)c2)sc1C(=O)N[C@H]1CCCNC1 [AZD7762] (partner 0.2 µM)
Summary of the method: as §1

Decitabine + Vorinostat = compound: Nc1ncn([C@H]2C[C@H](O)[C@@H](CO)O2)c(=O)n1 [Decitabine] + O=C(CCCCCCC(=O)Nc1ccccc1)NO [Vorinostat] (partner 1 µM)
Summary of the method: as §1

[1] = compound: O=C(C[C@H]1NCCC[C@@H]1O)Cn1cnc2cc(Br)c(Cl)cc2c1=O (racemic) [Halofuginone] + CC(=O)c1c(C)c2cnc(Nc3ccc(N4CCNCC4)cn3)nc2n(C2CCCC2)c1=O [Palbociclib] (partner 0.5 µM)
Summary of the method: as §1

| Cell Line | relative viability (Decitabine + Dasatinib; first compound 0.04 µM) | relative viability (Decitabine + Dasatinib; first compound 0.1265 µM) | relative viability (Decitabine + Dasatinib; first compound 0.4 µM) | relative viability (Decitabine + Dasatinib; first compound 1.265 µM) | relative viability (Decitabine + Dasatinib; first compound 4 µM) | relative viability (Decitabine + AZD7762; first compound 0.04 µM) | relative viability (Decitabine + AZD7762; first compound 0.1265 µM) | relative viability (Decitabine + AZD7762; first compound 0.4 µM) | relative viability (Decitabine + AZD7762; first compound 1.265 µM) | relative viability (Decitabine + AZD7762; first compound 4 µM) | relative viability (Decitabine + Vorinostat; first compound 0.04 µM) | relative viability (Decitabine + Vorinostat; first compound 0.1265 µM) | relative viability (Decitabine + Vorinostat; first compound 0.4 µM) | relative viability (Decitabine + Vorinostat; first compound 1.265 µM) | relative viability (Decitabine + Vorinostat; first compound 4 µM) | relative viability ([1]; first compound 0.001 µM) | relative viability ([1]; first compound 0.003162 µM) | relative viability ([1]; first compound 0.01 µM) | relative viability ([1]; first compound 0.03162 µM) | relative viability ([1]; first compound 0.1 µM) |
| --- | --- | --- | --- | --- | --- | --- | --- | --- | --- | --- | --- | --- | --- | --- | --- | --- | --- | --- | --- | --- |
| HCC-827 | 0.139 | 0.317 | 0.325 | 0.284 | 0.267 | 0.113 | 0.169 | 0.188 | 0.173 | 0.193 | 0.143 | 0.32 | 0.303 | 0.243 | 0.287 | 0.485 | 0.459 | 0.491 | 0.56 | 0.478 |
| HOP-62 | 0.634 | 0.622 | 0.284 | 0.14 | 0.147 | 0.361 | 0.297 | 0.143 | 0.117 | 0.147 | 0.348 | 0.316 | 0.161 | 0.123 | 0.11 | 0.435 | 0.427 | 0.426 | 0.375 | 0.227 |
| IA-LM | – | – | – | – | – | – | – | – | – | – | 0.853 | 0.403 | 0.393 | 0.236 | 0.164 | – | – | – | – | – |
| LC-2-ad | 0.416 | 0.603 | 0.404 | 0.262 | 0.261 | 0.769 | 0.846 | 0.925 | 0.491 | 0.63 | 0.642 | 0.635 | 0.608 | 0.365 | 0.406 | 0.504 | 0.505 | 0.456 | 0.478 | 0.411 |
| LCLC-97TM1 | 0.535 | 0.507 | 0.42 | 0.222 | 0.119 | 0.0916 | 0.108 | 0.0741 | 0.102 | 0.0907 | 0.273 | 0.159 | 0.107 | 0.0989 | 0.0784 | 0.3 | 0.194 | 0.257 | 0.239 | 0.219 |
| LCLC-103H | 0.507 | 0.57 | 0.457 | 0.337 | 0.374 | 0.746 | 0.728 | 0.649 | 0.639 | 0.551 | 0.653 | 0.81 | 0.628 | 0.511 | 0.561 | 0.492 | 0.491 | 0.462 | 0.467 | 0.523 |
| LK-2 | 0.406 | 0.445 | 0.227 | 0.266 | 0.301 | 0.299 | 0.37 | 0.288 | 0.256 | 0.14 | 0.229 | 0.268 | 0.285 | 0.204 | 0.208 | 0.736 | 0.714 | 0.691 | 0.777 | 0.552 |
| NCI-H520 | 0.263 | 0.242 | 0.217 | 0.239 | 0.19 | – | – | – | – | – | 0.622 | 0.627 | 0.413 | 0.397 | 0.296 | 0.191 | 0.222 | 0.208 | 0.232 | 0.2 |
| NCI-H596 | 0.59 | 0.585 | – | 0.508 | 0.435 | 1.07 | 1.14 | 0.699 | 0.913 | 0.881 | 0.613 | 0.618 | 0.553 | 0.51 | 0.507 | – | – | – | – | – |
| NCI-H661 | 0.679 | 0.629 | 0.475 | 0.305 | 0.347 | – | – | – | – | – | 0.806 | 0.602 | 0.54 | 0.467 | 0.485 | 0.422 | 0.405 | 0.37 | 0.373 | 0.312 |
| NCI-H1563 | 0.447 | 0.462 | 0.584 | 0.485 | 0.499 | – | – | – | – | – | – | – | – | – | – | – | – | – | – | – |
| NCI-H1623 | 0.464 | 0.494 | 0.461 | 0.467 | 0.514 | – | – | – | – | – | – | – | – | – | – | – | – | – | – | – |
| NCI-H1648 | – | – | – | – | – | 0.692 | 0.672 | 0.469 | 0.448 | 0.428 | 0.384 | 0.386 | 0.305 | 0.249 | 0.315 | 0.28 | 0.322 | 0.178 | 0.261 | 0.249 |
| NCI-H1650 | 0.328 | 0.314 | 0.247 | 0.26 | 0.248 | – | – | – | – | – | 0.358 | 0.367 | 0.318 | 0.195 | 0.215 | 0.265 | 0.303 | 0.323 | 0.323 | 0.173 |
| NCI-H1703 | – | – | – | – | – | 0.111 | 0.0883 | 0.132 | 0.152 | 0.102 | – | – | – | – | – | – | – | – | – | – |
| NCI-H1792 | 0.835 | 0.86 | 0.861 | 0.677 | 0.558 | 0.616 | 0.731 | 0.478 | 0.242 | 0.19 | – | – | – | – | – | 0.613 | 0.704 | 0.666 | 0.662 | 0.585 |
| NCI-H2009 | 0.264 | 0.273 | 0.252 | 0.204 | 0.185 | – | – | – | – | – | 0.474 | 0.446 | 0.356 | 0.285 | 0.335 | 0.349 | 0.252 | 0.218 | 0.201 | 0.157 |
| NCI-H2023 | 0.41 | 0.4 | 0.284 | 0.173 | 0.141 | – | – | – | – | – | 0.305 | 0.389 | 0.23 | 0.142 | 0.119 | 0.406 | 0.361 | 0.374 | 0.138 | 0.0623 |
| NCI-H2228 | 0.324 | 0.354 | 0.135 | 0.161 | 0.155 | – | – | – | – | – | 0.221 | 0.304 | 0.16 | 0.169 | 0.179 | 0.957 | 0.736 | 0.971 | 0.496 | 0.111 |
| SK-LU-1 | 0.188 | 0.166 | 0.173 | 0.154 | 0.185 | – | – | – | – | – | 0.611 | 0.65 | 0.443 | 0.453 | 0.433 | 0.389 | 0.439 | 0.369 | 0.368 | 0.319 |
| SK-MES-1 | 0.333 | 0.234 | 0.161 | 0.135 | 0.158 | – | – | – | – | – | 0.812 | 0.739 | 0.529 | 0.301 | 0.319 | 0.341 | 0.33 | 0.323 | 0.257 | 0.186 |
| SW 1573 | 0.458 | 0.433 | 0.416 | 0.153 | 0.163 | – | – | – | – | – | 0.515 | 0.601 | 0.458 | 0.325 | 0.206 | 0.422 | – | 0.392 | 0.23 | 0.106 |
